This passage reports IC50 results from patent US8399459B2, “1,4 oxazines as BACE1 and/or BACE2 inhibitors” (Hoffmann-La Roche Inc., priority 2011, dated 2013).

Structures are written as SMILES. Where a name gives a salt, the structure may show the parent alone.

In this assay the target is T1, BACE1 (Homo sapiens, UniProt P56817).
T1 construct: Human HEK293 cells which are stably transfected with a vector expressing a cDNA of the human APP wt gene (APP695); endogenous in cells; host or cells: HEK293 (human), stably transfected with human APP695 wt only
T1 sequence (P56817 46-501): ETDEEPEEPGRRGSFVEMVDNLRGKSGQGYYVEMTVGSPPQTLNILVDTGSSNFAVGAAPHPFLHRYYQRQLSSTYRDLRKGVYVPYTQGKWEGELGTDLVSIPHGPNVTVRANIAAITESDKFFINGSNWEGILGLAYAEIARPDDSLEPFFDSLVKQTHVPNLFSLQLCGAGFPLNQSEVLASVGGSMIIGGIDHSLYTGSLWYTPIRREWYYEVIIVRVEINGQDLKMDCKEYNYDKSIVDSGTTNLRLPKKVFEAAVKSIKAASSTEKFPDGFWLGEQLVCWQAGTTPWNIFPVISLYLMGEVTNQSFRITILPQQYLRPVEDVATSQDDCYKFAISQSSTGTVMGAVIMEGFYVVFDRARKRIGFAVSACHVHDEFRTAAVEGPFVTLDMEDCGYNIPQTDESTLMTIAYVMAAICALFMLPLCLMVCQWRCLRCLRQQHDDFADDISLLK
Briefly: Cellular Aβ-lowering assay (Aβ40 ELISA, HEK293 cells expressing human APP695). As to conditions: HEK293 cells stably expressing human APP695; Aβ40 in supernatant after 18-20 hrs. It is filed as cell-based. As for the experimental part: Cellular Aβ-Lowering Assay:
Human HEK293 cells which are stably transfected with a vector expressing a cDNA of the human APP wt gene (APP695) were used to assess the potency of the compounds in a cellular assay. The cells were seeded in 96-well microtiter plates in cell culture medium (Iscove, plus 10% (v/v) fetal bovine serum, glutamine, penicillin/streptomycin) to about 80% confluence and the compounds were added at a 10× concentration in 1/10 volume of medium without FCS containing 8% DMSO (final concentration of DMSO was kept at 0.8% v/v). After 18-20 hrs incubation at 37° C. and 5% CO2 in a humidified incubator the culture supernatant was harvested for the determination of Aβ40 concentrations. 96well ELISA plates (e.g., Nunc MaxiSorb) were coated with monoclonal antibody which specifically recognize the C-terminal end of Aβ40 (Brockhaus et al., NeuroReport 9, 1481-1486; 1998). After blocking of non-specific binding sites with e.g. 1% BSA and washing, the culture supernatants were added in suitable dilutions together with a horseradish peroxidase-coupled Aβ detection antibody (e.g., antibody 4G8, Senetek, Maryland Heights, Mo.) and incubated for 5 to 7 hrs. Subsequently the wells of the microtiter plate were washed extensively with Tris-buffered saline containing 0.05% Tween 20 and the assay was developed with tetramethylbenzidine/H2O2 in citric acid buffer. After stopping the reaction with one volume 1 N H2SO4 the reaction was measured in an ELISA reader at 450 nm wavelength. The concentrations of Aβ in the culture supernatants were calculated from a standard curve obtained with known amounts of pure Aβ peptide.
For orientation: An ELISA detects its analyte on a solid surface through an enzyme-linked reagent.
For `COc1cncc(-c2cccc(C3(C)COCC(N)=N3)c2)c1` (stereo not drawn) [Example 1, 5-[3-(5-Methoxy-pyridin-3-yl)-phenyl]-5-methyl-5,6-dihydro-2H-[1,4]oxazin-3-ylamine], the IC50 amounted to 100 nM.

`CC1(c2cccc(-c3ccc(F)cc3)c2)COCC(N)=N1` (stereo not drawn) [Example 2, 5-(4′-Fluoro-biphenyl-3-yl)-5-methyl-5,6-dihydro-2H-[1,4]oxazin-3-ylamine] gave a 50% inhibitory concentration (IC50) of 1170 nM.

As for `CC1(c2cccc(-c3ccsc3)c2)COCC(N)=N1` (stereo not drawn) [Example 3, 5-Methyl-5-(3-thiophen-3-yl-phenyl)-5,6-dihydro-2H-[1,4]oxazin-3-ylamine], it took 1060 nM to reach half-maximal inhibition (IC50).

As to `CC1(c2cccc(-c3cccc(Cl)c3)c2)COCC(N)=N1` (stereo not drawn) [Example 4, 5-(3′-Chloro-biphenyl-3-yl)-5-methyl-5,6-dihydro-2H-[1,4]oxazin-3-ylamine], inhibition was half-maximal at 390 nM (IC50).

`CC1(c2cccc(-c3cc(Cl)ccc3Cl)c2)COCC(N)=N1` (stereo not drawn) [Example 5, 5-(2′,5′-Dichloro-biphenyl-3-yl)-5-methyl-5,6-dihydro-2H-[1,4]oxazin-3-ylamine] displayed an IC50 of 1090 nM.

As for `CC1(c2cccc(-c3cc(Cl)cc(Cl)c3Cl)c2)COCC(N)=N1` (stereo not drawn) [Example 6, 5-Methyl-5-(2′,3′,5′-trichloro-biphenyl-3-yl)-5,6-dihydro-2H-[1,4]oxazin-3-ylamine], the concentration for half-maximal inhibition (IC50) worked out at 4060 nM.

In turn, `CC1(c2cccc(-c3ccc(F)c(Cl)c3)c2)COCC(N)=N1` (stereo not drawn) [Example 7, 5-(3′-Chloro-4′-fluoro-biphenyl-3-yl)-5-methyl-5,6-dihydro-2H-[1,4]oxazin-3-ylamine] had a half-inhibitory concentration (IC50) of 650 nM.

Take `COc1cc(Cl)cc(-c2cccc(C3(C)COCC(N)=N3)c2)c1` (stereo not drawn) [Example 8, 5-(3′-Chloro-5′-methoxy-biphenyl-3-yl)-5-methyl-5,6-dihydro-2H-[1,4]oxazin-3-ylamine]: the IC50 turned out to be 1490 nM.

Take `Cc1cc(Cl)cc(-c2cccc(C3(C)COCC(N)=N3)c2)c1F` (stereo not drawn) [Example 10, 5-(5′-Chloro-2′-fluoro-3′-methyl-biphenyl-3-yl)-5-methyl-5,6-dihydro-2H-[1,4]oxazin-3-ylamine]: 1500 nM corresponded to half-maximal inhibition (IC50).

In turn, `CC1(c2cccc(-c3cc(Cl)cc(C(F)(F)F)c3)c2)COCC(N)=N1` (stereo not drawn) [Example 11, 5-(5′-Chloro-3′-trifluoromethyl-biphenyl-3-yl)-5-methyl-5,6-dihydro-2H-[1,4]oxazin-3-ylamine] gave a concentration for half-maximal inhibition (IC50) of 1840 nM.

On to `CC1(c2cccc(-c3cc(Cl)cc(C(N)=O)c3)c2)COCC(N)=N1` (stereo not drawn) [Example 12, 3′-(5-Amino-3-methyl-3,6-dihydro-2H-[1,4]oxazin-3-yl)-5-chloro-biphenyl-3-carboxylic acid amide], for which the 50% inhibitory concentration (IC50) is 1120 nM.

The compound `CC1(c2cccc(-c3cc(Cl)cc(C(=O)N4CCOCC4)c3)c2)COCC(N)=N1` (stereo not drawn) [Example 13, [3′-(5-Amino-3-methyl-3,6-dihydro-2H-[1,4]oxazin-3-yl)-5-chloro-biphenyl-3-yl]-morpholin-4-yl-methanone] registered a half-maximal inhibitory concentration (IC50) of 2390 nM.

`CC1(c2cccc(-c3cccc(OC(F)F)c3)c2)COCC(N)=N1` (stereo not drawn) [Example 14, 5-(3′-Difluoromethoxy-biphenyl-3-yl)-5-methyl-5,6-dihydro-2H-[1,4]oxazin-3-ylamine]: it took 480 nM to reach half-maximal inhibition (IC50).

`CC1(c2cccc(-c3cccc(OC(F)(F)F)c3)c2)COCC(N)=N1` (stereo not drawn) [Example 15, 5-Methyl-5-(3′-trifluoromethoxy-biphenyl-3-yl)-5,6-dihydro-2H-[1,4]oxazin-3-ylamine] showed a half-inhibitory concentration (IC50) of 2310 nM.

The compound `CC1(c2cccc(-c3cccc(C#N)c3)c2)COCC(N)=N1` (stereo not drawn) [Example 16, 3′-(5-Amino-3-methyl-3,6-dihydro-2H-[1,4]oxazin-3-yl)-biphenyl-3-carbonitrile] came in with an IC50 of 280 nM.

The compound `CC1(c2cccc(-c3cccc(CC#N)c3)c2)COCC(N)=N1` (stereo not drawn) [Example 17, [3′-(5-Amino-3-methyl-3,6-dihydro-2H-[1,4]oxazin-3-yl)-biphenyl-3-yl]-acetonitrile] came in with an IC50 of 1060 nM.

For the compound `CC(C)(C)c1ccc(-c2cccc(C3(C)COCC(N)=N3)c2)cc1` (stereo not drawn) [Example 18, 5-(4′-tert-butyl-biphenyl-3-yl)-5-methyl-5,6-dihydro-2H-[1,4]oxazin-3-ylamine formate], the IC50 was 6120 nM.

In turn, `CC1(c2cccc(-c3ccnc(Cl)c3)c2)COCC(N)=N1` (stereo not drawn) [Example 19, 5-[3-(2-chloro-pyridin-4-yl)-phenyl]-5-methyl-5,6-dihydro-2H-[1,4]oxazin-3-ylamine formate] gave an IC50 of 1060 nM.

The compound `CC1(c2cccc(-c3cc(Cl)cnc3Cl)c2)COCC(N)=N1` (stereo not drawn) [Example 20, 5-[3-(2,5-Dichloro-pyridin-3-yl)-phenyl]-5-methyl-5,6-dihydro-2H-[1,4]oxazin-3-ylamine] came in with an IC50 of 490 nM.

`CC1(c2cccc(-c3ccc4c(c3)OC(F)(F)O4)c2)COCC(N)=N1` (stereo not drawn) [Example 21, 5-[3-(2,2-Difluoro-benzo[1,3]dioxol-5-yl)-phenyl]-5-methyl-5,6-dihydro-2H-[1,4]oxazin-3-ylamine] displayed an IC50 of 4550 nM.

In turn, `CC1(c2cccc(-c3ccc4c(c3)OCO4)c2)COCC(N)=N1` (stereo not drawn) [Example 22, 5-(3-Benzo[1,3]dioxol-5-yl-phenyl)-5-methyl-5,6-dihydro-2H-[1,4]oxazin-3-ylamine] registered an IC50 of 1060 nM.

For the compound `Cn1ncc2c(-c3cccc(C4(C)COCC(N)=N4)c3)cccc21` (stereo not drawn) [Example 23, 5-Methyl-5-[3-(1-methyl-1H-indazol-4-yl)-phenyl]-5,6-dihydro-2H-[1,4]oxazin-3-ylamine], the IC50 worked out at 3660 nM.

Compound `CC1(c2cccc(-c3cc4ccc(Cl)cc4[nH]3)c2)COCC(N)=N1` (stereo not drawn) [Example 24, 5-[3-(6-Chloro-1H-indol-2-yl)-phenyl]-5-methyl-5,6-dihydro-2H-[1,4]oxazin-3-ylamine] gave a half-inhibitory concentration (IC50) of 12700 nM.

For the compound `CC1(c2cccc(-c3ccc4[nH]ccc4c3)c2)COCC(N)=N1` (stereo not drawn) [Example 25, 5-[3-(1H-Indol-5-yl)-phenyl]-5-methyl-5,6-dihydro-2H-[1,4]oxazin-3-ylamine], inhibition was half-maximal at 6410 nM (IC50).

Regarding `Cc1cc(-c2cccc(C3(C)COCC(N)=N3)c2)ccc1Cl` (stereo not drawn) [Example 26, 5-(4′-Chloro-3′-methyl-biphenyl-3-yl)-5-methyl-5,6-dihydro-2H-[1,4]oxazin-3-ylamine], the half-maximal inhibitory concentration (IC50) is 13000 nM.

Compound `CC1(c2cccc(-c3ccc(F)cc3F)c2)COCC(N)=N1` (stereo not drawn) [Example 27, 5-(2′,4′-Difluoro-biphenyl-3-yl)-5-methyl-5,6-dihydro-2H-[1,4]oxazin-3-ylamine] showed an IC50 of 1060 nM.

In the case of `CC1(c2cccc(-c3cc(F)cc(F)c3)c2)COCC(N)=N1` (stereo not drawn) [Example 28, 5-(3′,5′-Difluoro-biphenyl-3-yl)-5-methyl-5,6-dihydro-2H-[1,4]oxazin-3-ylamine], the half-maximal inhibitory concentration (IC50) stood at 2080 nM.

With `CC1(c2cccc(-c3ccccc3Cl)c2)COCC(N)=N1` (stereo not drawn) [Example 29, 5-(2′-Chloro-biphenyl-3-yl)-5-methyl-5,6-dihydro-2H-[1,4]oxazin-3-ylamine], the IC50 came out at 1060 nM.

`CCOc1cccc(-c2cccc(C3(C)COCC(N)=N3)c2)c1` (stereo not drawn) [Example 30, 5-(3′-Ethoxy-biphenyl-3-yl)-5-methyl-5,6-dihydro-2H-[1,4]oxazin-3-ylamine] yielded a half-inhibitory concentration (IC50) of 9100 nM.

As for `CC1(c2ccc(F)c(-c3cc(Cl)cc(Cl)c3)c2)COCC(N)=N1` (stereo not drawn) [Example 31, 5-(3′,5′-Dichloro-6-fluoro-biphenyl-3-yl)-5-methyl-5,6-dihydro-2H-[1,4]oxazin-3-ylamine], the IC50 amounted to 1000 nM.

As usually defined, the IC50 is the point on the concentration scale where inhibition reaches its midpoint. High values mean weaker potency, low ones greater potency.
